# Measurements published in patent US12383545B1, “Treatment of migraine” (priority 2018, dated 2025).
# Tested on: patients with migraine (4 to 14 migraine/probable migraine headache days)
# Test: Example 5: randomized double-blind placebo-controlled 12-week dose-regimen study (QD and BID), migraine/probable migraine (MPM) headache days efficacy
# Type: in vivo, human
# Settings: for At Least 50% Reduction in Mean Monthly MPM Headache Days, Non-responders / At Least 50% Reduction in Mean Monthly MPM Headache Days, Odds ratio vs. Placebo / At Least 50% Reduction in Mean Monthly MPM Headache Days, Responders / Change from Baseline in Mean Monthly Acute Medication Use Days, CFB MMRM LS Mean / Change from Baseline in Mean Monthly Acute Medication Use Days, CGP vs. Placebo LSMD / Change from Baseline in Mean Monthly Headache Days, CFB MMRM LS Mean / Change from Baseline in Mean Monthly Headache Days, CGP vs. Placebo LSMD / Change from Baseline in Mean Monthly MPM Headache Days, CFB MMRM LS Mean / Change from Baseline in Mean Monthly MPM Headache Days, CGP vs. Placebo LSMD: across the 12-Week Treatment Period, mITT Population; for Non-responders (at least 100% reduction in mean monthly MPM headache days not met), (%) / Non-responders (at least 100% reduction in mean monthly MPM headache days not met), n / Odds ratio vs. Placebo, at least 100% reduction in mean monthly MPM headache days / Responders (at least 100% reduction in mean monthly MPM headache days), (%) / Responders (at least 100% reduction in mean monthly MPM headache days), n: Weeks 1-4, mITT population
# Method: In a multicenter, randomized, double-blind, placebo-controlled, parallel-group study designed to evaluate the efficacy, safety, and tolerability of multiple doses and doses regimens of atogepant for the prevention of migraine. The patients were randomized (2:1:2:1:2:1) to 1 of 6 treatment groups: placebo, atogepant 10 mg QD, atogepant 30 mg QD, atogepant 30 mg BID, atogepant 60 mg QD, and atogepant 60 mg BID.
# This study consisted of a 4-week screening and baseline period and a 12-week double-blind treatment period, which was followed by a 4-week safety follow-up period. Total study duration is 20-weeks.
# To be randomized, eligible patients had to be 18 to 75 years of age (inclusive), have a history of migraine with or without aura for at least 1 year consistent with a diagnosis according to the International Classification of Headache Disorders criteria, 3rd edition, beta version, have experienced 4 to 14 migraine/probable migraine headache days and <15 headache days in the 28-day baseline period. Patients who had clinically significant hematologic, endocrine, cardiovascular, cerebrovascular, pulmonary, renal, hepatic, gastrointestinal, or neurologic disease were excluded from the study.
# A total of 834 patients were randomized to double-blind treatment (ITT population), and 825 patients took at least 1 dose of double-blind IP (safety population). […] The primary efficacy variable was the change from baseline in mean monthly migraine/probable migraine headache days across the 12-week treatment period. The secondary efficacy variables were the change from baseline in mean monthly headache days across the 12-week treatment period, proportion of patients with at least a 50% reduction in mean monthly migraine/probable migraine headache days across the 12-week treatment period, and the change from baseline in mean monthly acute medication use days across the 12-week treatment period.
smiles,measurement,setting,value
C[C@@H]1[C@H](c2c(F)ccc(F)c2F)C[C@H](NC(=O)c2cnc3c(c2)C[C@@]2(C3)C(=O)Nc3ncccc32)C(=O)N1CC(F)(F)F [atogepant],"At Least 50% Reduction in Mean Monthly MPM Headache Days, Non-responders",Atogepant 10 mg QD,39 (42.4) n (%)
same,"At Least 50% Reduction in Mean Monthly MPM Headache Days, Odds ratio vs. Placebo",Atogepant 10 mg QD,1.50
same,"At Least 50% Reduction in Mean Monthly MPM Headache Days, Responders",Atogepant 10 mg QD,53 (57.6) n (%)
same,"Change from Baseline in Mean Monthly Acute Medication Use Days, CFB MMRM LS Mean",Atogepant 10 mg QD,-3.71 days
same,"Change from Baseline in Mean Monthly Acute Medication Use Days, CGP vs. Placebo LSMD",Atogepant 10 mg QD,-1.30 days
same,"Change from Baseline in Mean Monthly Headache Days, CFB MMRM LS Mean",Atogepant 10 mg QD,-4.31 days
same,"Change from Baseline in Mean Monthly Headache Days, CGP vs. Placebo LSMD",Atogepant 10 mg QD,-1.38 days
same,"Change from Baseline in Mean Monthly MPM Headache Days, CFB MMRM LS Mean",Atogepant 10 mg QD,-4.00 days
same,"Change from Baseline in Mean Monthly MPM Headache Days, CGP vs. Placebo LSMD",Atogepant 10 mg QD,-1.15 days
same,"At Least 50% Reduction in Mean Monthly MPM Headache Days, Non-responders",Atogepant 30 mg BID,33 (41.8) n (%)
same,"At Least 50% Reduction in Mean Monthly MPM Headache Days, Odds ratio vs. Placebo",Atogepant 30 mg BID,1.83
same,"At Least 50% Reduction in Mean Monthly MPM Headache Days, Responders",Atogepant 30 mg BID,46 (58.2) n (%)
same,"Change from Baseline in Mean Monthly Acute Medication Use Days, CFB MMRM LS Mean",Atogepant 30 mg BID,-3.77 days
same,"Change from Baseline in Mean Monthly Acute Medication Use Days, CGP vs. Placebo LSMD",Atogepant 30 mg BID,-1.35 days
same,"Change from Baseline in Mean Monthly Headache Days, CFB MMRM LS Mean",Atogepant 30 mg BID,-4.23 days
same,"Change from Baseline in Mean Monthly Headache Days, CGP vs. Placebo LSMD",Atogepant 30 mg BID,-1.30 days
same,"Change from Baseline in Mean Monthly MPM Headache Days, CFB MMRM LS Mean",Atogepant 30 mg BID,-4.23 days
same,"Change from Baseline in Mean Monthly MPM Headache Days, CGP vs. Placebo LSMD",Atogepant 30 mg BID,-1.39 days
same,"At Least 50% Reduction in Mean Monthly MPM Headache Days, Non-responders",Atogepant 30 mg QD,85 (46.7) n (%)
same,"At Least 50% Reduction in Mean Monthly MPM Headache Days, Odds ratio vs. Placebo",Atogepant 30 mg QD,1.46
same,"At Least 50% Reduction in Mean Monthly MPM Headache Days, Responders",Atogepant 30 mg QD,97 (53.3) n (%)
same,"Change from Baseline in Mean Monthly Acute Medication Use Days, CFB MMRM LS Mean",Atogepant 30 mg QD,-3.86 days
same,"Change from Baseline in Mean Monthly Acute Medication Use Days, CGP vs. Placebo LSMD",Atogepant 30 mg QD,-1.44 days
same,"Change from Baseline in Mean Monthly Headache Days, CFB MMRM LS Mean",Atogepant 30 mg QD,-4.17 days
same,"Change from Baseline in Mean Monthly Headache Days, CGP vs. Placebo LSMD",Atogepant 30 mg QD,-1.24 days
same,"Change from Baseline in Mean Monthly MPM Headache Days, CFB MMRM LS Mean",Atogepant 30 mg QD,-3.76 days
same,"Change from Baseline in Mean Monthly MPM Headache Days, CGP vs. Placebo LSMD",Atogepant 30 mg QD,-0.91 days
same,"At Least 50% Reduction in Mean Monthly MPM Headache Days, Non-responders",Atogepant 60 mg BID,33 (37.9) n (%)
same,"At Least 50% Reduction in Mean Monthly MPM Headache Days, Odds ratio vs. Placebo",Atogepant 60 mg BID,2.03
same,"At Least 50% Reduction in Mean Monthly MPM Headache Days, Responders",Atogepant 60 mg BID,54 (62.1) n (%)
same,"Change from Baseline in Mean Monthly Acute Medication Use Days, CFB MMRM LS Mean",Atogepant 60 mg BID,-3.64 days
same,"Change from Baseline in Mean Monthly Acute Medication Use Days, CGP vs. Placebo LSMD",Atogepant 60 mg BID,-1.22 days
same,"Change from Baseline in Mean Monthly Headache Days, CFB MMRM LS Mean",Atogepant 60 mg BID,-4.32 days
same,"Change from Baseline in Mean Monthly Headache Days, CGP vs. Placebo LSMD",Atogepant 60 mg BID,-1.39 days
same,"Change from Baseline in Mean Monthly MPM Headache Days, CFB MMRM LS Mean",Atogepant 60 mg BID,-4.14 days
same,"Change from Baseline in Mean Monthly MPM Headache Days, CGP vs. Placebo LSMD",Atogepant 60 mg BID,-1.29 days
same,"At Least 50% Reduction in Mean Monthly MPM Headache Days, Non-responders",Atogepant 60 mg QD,85 (48.0) n (%)
same,"At Least 50% Reduction in Mean Monthly MPM Headache Days, Odds ratio vs. Placebo",Atogepant 60 mg QD,1.42
same,"At Least 50% Reduction in Mean Monthly MPM Headache Days, Responders",Atogepant 60 mg QD,92 (52.0) n (%)
same,"Change from Baseline in Mean Monthly Acute Medication Use Days, CFB MMRM LS Mean",Atogepant 60 mg QD,-3.53 days
same,"Change from Baseline in Mean Monthly Acute Medication Use Days, CGP vs. Placebo LSMD",Atogepant 60 mg QD,-1.11 days
same,"Change from Baseline in Mean Monthly Headache Days, CFB MMRM LS Mean",Atogepant 60 mg QD,-3.86 days
same,"Change from Baseline in Mean Monthly Headache Days, CGP vs. Placebo LSMD",Atogepant 60 mg QD,-0.94 days
same,"Change from Baseline in Mean Monthly MPM Headache Days, CFB MMRM LS Mean",Atogepant 60 mg QD,-3.55 days
same,"Change from Baseline in Mean Monthly MPM Headache Days, CGP vs. Placebo LSMD",Atogepant 60 mg QD,-0.70 days
same,"Non-responders (at least 100% reduction in mean monthly MPM headache days not met), (%)",Atogepant 10 mg QD (N = 92),(81.5) %
same,"Non-responders (at least 100% reduction in mean monthly MPM headache days not met), n",Atogepant 10 mg QD (N = 92),75
same,"Odds ratio vs. Placebo, at least 100% reduction in mean monthly MPM headache days",Atogepant 10 mg QD (N = 92),6.39
same,"Responders (at least 100% reduction in mean monthly MPM headache days), (%)",Atogepant 10 mg QD (N = 92),(18.5) %
same,"Responders (at least 100% reduction in mean monthly MPM headache days), n",Atogepant 10 mg QD (N = 92),17
same,"Non-responders (at least 100% reduction in mean monthly MPM headache days not met), (%)",Atogepant 30 mg BID (N = 79),(83.5) %
same,"Non-responders (at least 100% reduction in mean monthly MPM headache days not met), n",Atogepant 30 mg BID (N = 79),66
same,"Odds ratio vs. Placebo, at least 100% reduction in mean monthly MPM headache days",Atogepant 30 mg BID (N = 79),5.23
same,"Responders (at least 100% reduction in mean monthly MPM headache days), (%)",Atogepant 30 mg BID (N = 79),(16.5) %
same,"Responders (at least 100% reduction in mean monthly MPM headache days), n",Atogepant 30 mg BID (N = 79),13
same,"Non-responders (at least 100% reduction in mean monthly MPM headache days not met), (%)",Atogepant 30 mg QD (N = 182),(80.2) %
same,"Non-responders (at least 100% reduction in mean monthly MPM headache days not met), n",Atogepant 30 mg QD (N = 182),146
same,"Odds ratio vs. Placebo, at least 100% reduction in mean monthly MPM headache days",Atogepant 30 mg QD (N = 182),7.05
same,"Responders (at least 100% reduction in mean monthly MPM headache days), (%)",Atogepant 30 mg QD (N = 182),(19.8) %
same,"Responders (at least 100% reduction in mean monthly MPM headache days), n",Atogepant 30 mg QD (N = 182),36
